# Target: T1, human recombinant Yes [a.a. 2–543 (end)] (Homo sapiens, UniProt P07947)
# T1 construct: human recombinant Yes [a.a; 2–543 (end)]; purchased BPS Bioscience 40488
# Test: ADP-Glo kinase assay, inhibition rates of Yes phosphorylation activity (first and second screening)
# Type: biochemical
# Details: first screening; mean of n = 4 wells; 10 μmol L−1 compound
# Method: All inhibitory assays of the phosphorylation activity of Yes were performed in accordance with the Promega Technical Manual for the ADP-Glo™ Kinase Assay (Fitchburg, WI, USA. Catalog number: V9102). The human recombinant Yes [a.a. 2–543 (end)] was purchased from BPS Bioscience (catalog number: 40488). The details of the assay protocol and reagent information are given elsewhere.
# The screening was conducted in three steps consisting of the first screening, the second screening, and the IC50 determination, as can be illustrated in Fig. 1b. First, we determined the inhibition rates of the 1,991 compounds. Each compound was placed in 4 wells of a 384-well plate. In total, 80 compounds were assayed on one plate and the other wells were used for positive and negative controls. The compounds were randomly placed on plates so that compounds proposed by one group were not placed on a plate together. A mean of four inhibition rates for each compound was compared to criteria for the first screening. […] Second, the inhibition rates of the screened compounds were determined on one plate using the same procedure of the first screening, where compounds were dissolved from fresh powder. […] Screened compounds were then evaluated for their IC50 values.
# T1 sequence (P07947 2-543): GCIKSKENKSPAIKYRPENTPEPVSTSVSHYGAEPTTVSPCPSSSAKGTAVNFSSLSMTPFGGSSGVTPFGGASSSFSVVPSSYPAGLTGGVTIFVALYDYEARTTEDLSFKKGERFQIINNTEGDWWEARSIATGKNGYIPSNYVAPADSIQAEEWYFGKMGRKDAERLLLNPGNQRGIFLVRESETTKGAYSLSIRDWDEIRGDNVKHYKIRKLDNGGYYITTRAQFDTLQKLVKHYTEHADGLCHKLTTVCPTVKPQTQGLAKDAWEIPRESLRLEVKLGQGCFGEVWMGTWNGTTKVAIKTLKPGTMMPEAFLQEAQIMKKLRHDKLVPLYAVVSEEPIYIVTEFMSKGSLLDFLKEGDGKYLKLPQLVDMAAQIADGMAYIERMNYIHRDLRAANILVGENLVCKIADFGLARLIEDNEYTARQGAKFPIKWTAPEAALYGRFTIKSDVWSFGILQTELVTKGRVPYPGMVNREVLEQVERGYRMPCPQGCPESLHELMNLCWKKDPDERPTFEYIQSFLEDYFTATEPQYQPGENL
row,SMILES,First screening IR (inhibition rate) [%]
1,O=C(CSc1nc2ccccc2s1)Nc1cccc2c1C(=O)c1ccccc1C2=O [Compound Z19654122],6
2,CCc1cccc(NC(=O)COC(=O)Cc2cccc3ccccc23)c1 [Compound Z19678477],7
3,CCn1c2ccccc2c2cc(NC(=O)COC(=O)c3c4c(nc5ccccc35)CCCC4)ccc21 [Compound Z19690549],1
4,CC(C)N(c1ccccc1)c1ccc(NC(=O)COC(=O)c2c3c(nc4ccccc24)CCCC3)cc1 [Compound Z19690670],10
5,Cc1ccccc1Nc1nc(N)nc(CSc2ccccc2)n1 [Compound Z19751109],28
6,O=C(COc1c(Br)cc(Br)c2cccnc12)N1CCCCC1 [Compound Z19811005],5
7,COc1ccccc1NC(=O)c1ccc(NC(=O)COc2ccc(-c3ccccc3)cc2)cc1 [Compound Z19829052],3
8,Cc1ccccc1Nc1nc(N)nc(CSc2nc3ccccc3c(=O)n2CCCN2CCOCC2)n1 [Compound Z19837406],-7
9,O=C(CSc1nc2ccccc2c(=O)n1CCCN1CCOCC1)Nc1ccc2ccccc2c1 [Compound Z19837911],46
10,COc1ccc(-n2c(SCC(=O)N3CCCCCC3)nnc2-c2ccc(Cl)cc2)cc1 [Compound Z19871234],2
11,COc1cccc(-c2nnc(SCC(=O)N3CCOCC3)n2-c2ccc(C)cc2)c1 [Compound Z19982748],27
12,O=C(CSc1nnc(COc2ccccc2Cl)n1-c1ccccc1)N1CCc2ccccc2C1 [Compound Z20151781],-5
13,Cc1cccc(C)c1Nc1nnc(SCC(=O)NC(Cc2c[nH]c3ccccc23)C(=O)O)s1 (stereo not shown) [Compound Z20162836],3
14,Cc1ccc(NC(=O)C(C)Sc2ncnc3sc4c(c23)CCC4)cc1 (stereo not shown) [Compound Z20227630],-9
15,Cc1sc2ncnc(SCC(=O)Nc3ncc(Cl)c(C)c3Cl)c2c1C [Compound Z20229401],-1
16,CC(Sc1nnc2ccccn12)C(=O)Nc1nc(-c2ccc(Cl)c(Cl)c2)cs1 (stereo not shown) [Compound Z20241270],4
17,CC(Sc1nnc2ccccn12)C(=O)Nc1nc(-c2ccc(F)c(F)c2)cs1 (stereo not shown) [Compound Z20241790],21
18,Cc1cc(SCC(=O)NC(=O)NC2CCCC2)nc2ccccc12 [Compound Z20243594],8
19,Cc1cc(SCC(=O)c2cc(C)n(-c3ccccc3F)c2C)nc2ccccc12 [Compound Z20243606],5
20,Cc1ccc(C)c(-n2nnnc2SC(C)C(=O)Nc2ccc(Cl)cn2)c1 (stereo not shown) [Compound Z21689617],8
21,COCCn1cnc2c1c(=O)n(CC(=O)NC(=O)NC1CCCCC1C)c(=O)n2Cc1ccccc1 (stereo not shown) [Compound Z24102979],-2
22,CCn1cnc2c1c(=O)n(CC(=O)N1CCC(Cc3ccccc3)CC1)c(=O)n2Cc1ccccc1 [Compound Z24103907],9

row,SMILES,First screening IR (inhibition rate) [%]
1,COC(=O)c1ccc(CNC(=O)Cn2c(=O)c3c(ncn3CCC(C)C)n(Cc3ccccc3)c2=O)cc1 [Compound Z24149625],8
2,C=CCn1c(SCc2cc(=O)n3ccsc3n2)nnc1-c1ccncc1 [Compound Z24172012],4
3,C=CCn1c(COc2ccccc2F)nnc1SCCCn1c(=O)[nH]c2ccccc21 [Compound Z24188026],-6
4,Cc1ccc(C(=O)C(Sc2nnc(C3COc4ccccc4O3)n2C)c2ccc(C)cc2)cc1 (stereo not shown) [Compound Z24312958],0
5,COc1ccc(S(=O)(=O)NCC(=O)OCC(=O)Nc2ccc(Cl)c(C(F)(F)F)c2)cc1 [Compound Z24395276],8
6,C=CCN(CC(=O)Nc1ccc(S(=O)(=O)N2CCOCC2)cc1)S(=O)(=O)c1ccccc1C(F)(F)F [Compound Z24398732],0
7,CC(C)(C)c1ccc(OCc2nnc(SCC(=O)N3CCC(c4ccccc4)=N3)n2N)cc1 [Compound Z24578166],40
8,O=C(COc1cccnc1[N+](=O)[O-])Nc1ccc2c(c1)OCCO2 [Compound Z24778709],9
9,Cc1ccc(SCc2nc(N)nc(Nc3ccccc3C)n2)cc1C [Compound Z24835676],-13
10,Cc1cc(C)c(NC(=O)CNC(=O)COc2ccccc2C(=O)N2CCCCC2)c(C)c1 [Compound Z25138787],-1
11,COc1ccccc1NC(=O)c1ccc(NC(=O)COc2ccc(-n3cnnn3)cc2)cc1 [Compound Z25181441],17
12,CC(Sc1n[nH]c(-c2ccccc2Br)n1)C(=O)Nc1ccc(F)cc1 (stereo not shown) [Compound Z25191222],4
13,Cc1ccc2nc(CSc3n[nH]c(-c4ccccc4)n3)cn2c1 [Compound Z25398010],-4
14,CC(Sc1n[nH]c(-c2ccccc2)n1)C(=O)c1c[nH]c2ccccc12 (stereo not shown) [Compound Z25398193],49
15,COC(=O)c1cc(CSc2n[nH]c(-c3ccccc3)n2)oc1C [Compound Z25398505],1
16,O=C(CSc1n[nH]c(-c2ccccc2)n1)N1N=C(c2ccc(Cl)cc2)CC1c1ccco1 (stereo not shown) [Compound Z25399394],13
17,Cc1oc2cc(OCC(=O)N(C)C3CCS(=O)(=O)C3)ccc2c(=O)c1-c1c(F)cccc1Cl (stereo not shown) [Compound Z25645184],-1
18,CC(O)CNc1nc2ccccc2n1CC(=O)NCc1cccs1 (stereo not shown) [Compound Z25766910],-11
19,CC(=O)CCc1ccc(OCc2cc(=O)n3cc(C)ccc3n2)cc1 [Compound Z25824142],-24
20,COc1cc(Cl)c(C)cc1NC(=O)CN(Cc1ccco1)S(=O)(=O)c1cccc(Cl)c1 [Compound Z25969255],38
21,O=[N+]([O-])c1cc2c(c(CN(Cc3ccccc3)S(=O)(=O)c3cccc(C(F)(F)F)c3)c1)OCOC2 [Compound Z25980301],7
22,C=CCN(Cc1nnc(-c2ccc(Cl)cc2)o1)S(=O)(=O)c1ccc(NC(C)=O)cc1 [Compound Z26082391],3

row,SMILES,First screening IR (inhibition rate) [%]
1,C=CCN(CC(=O)Nc1cccc(C#N)c1)S(=O)(=O)c1ccccc1F [Compound Z26091205],3
2,Cc1ccc(C)c(S(=O)(=O)N(CC(=O)Nc2ccc(Oc3ccccc3)cc2)Cc2ccc(F)cc2)c1 [Compound Z26125608],-6
3,COc1ccc(C(N)=O)c(OCc2nc3ccccc3nc2C)c1 [Compound Z26325749],35
4,Cc1cccc(OCC(=O)Nc2sc3c(c2C(N)=O)CCC3)c1 [Compound Z26345967],18
5,COc1cc(C(=O)Nc2c(C)cccc2C(C)C)ccc1OCc1c(C)noc1C [Compound Z26400530],1
6,Cc1ccc(-c2nn(-c3ccc(F)cc3)cc2C(=O)N(C)CC(=O)Nc2ccc(N3CCOCC3)cc2)cc1 [Compound Z26593504],46
7,Cc1cccc(-c2nn(-c3ccccc3)cc2C(=O)N(C)CC(=O)Nc2ccc(N3CCOCC3)cc2)c1 [Compound Z26593505],2
8,COc1ccc(C(CNC(=O)c2ccc3c(c2)NC(=O)C(C)S3)N(C)C)cc1 (stereo not shown) [Compound Z26596638],27
9,O=C(c1cn(Cc2ccccc2)nc1-c1cccnc1)N1CCN(c2ccccn2)CC1 [Compound Z26735071],21
10,O=C(CN(Cc1ccccc1)S(=O)(=O)c1ccc(Cl)cc1)N1CCN(c2ccccn2)CC1 [Compound Z26735553],16
11,O=C(NCc1nc2ccccc2[nH]1)c1ccc(OCc2ccccc2)cc1 [Compound Z26780414],5
12,O=C(COc1ccccc1)NCc1nc2ccccc2[nH]1 [Compound Z26782031],-12
13,O=C(Nc1ccc2[nH]c(=O)[nH]c2c1)c1cc2c(s1)-c1ccccc1CC2 [Compound Z26792816],4
14,NC(=O)Nc1ccc(C(=O)NCCC(c2ccccc2)c2ccccc2)cc1 [Compound Z26815125],-8
15,Cc1cccc(N2CCN(C(=O)C3CCN(C(=O)C4CC4)CC3)CC2)c1C [Compound Z26849648],-2
16,CNS(=O)(=O)c1cc(C(=O)N2CCN(Cc3cc(OC)ccc3OC)CC2)ccc1Cl [Compound Z26970092],28
17,CN(CC(=O)Nc1cccc(F)c1)C(=O)c1cc2ccccc2cc1O [Compound Z26987740],21
18,O=C(Nc1ccccc1OC(F)F)c1ccc2c(c1)C(=O)N(Cc1ccncc1)C2=O [Compound Z27081729],20
19,O=C(Cc1cn2ccsc2n1)NCCN1C(=O)S/C(=C/c2cccnc2)C1=O [Compound Z27116942],12
20,N#Cc1ccccc1S(=O)(=O)N1CCN(C(=O)/C=C/c2ccc3c(c2)OCCCO3)CC1 [Compound Z27234574],36

# From article PMC5607274, “An iterative compound screening contest method for identifying target protein inhibitors using the tyrosine-protein kinase Yes” (Scientific Reports, 2017)
